How the values were obtained:
[1] = tested on: Pyricularia oryzae; assay: microbe, parasite or virus in culture; assay type: cell-based; conditions: 168 h, read-out: control compared to the untreated check (radial growth)
[2] = tested on: Botrytis cinerea; assay: Botrytis cinerea (gray mold) in vitro test, radial growth on potato dextrose agar; assay type: cell-based; conditions: 168 h, 300 ppm in potato dextrose agar, 22° C., 90% relative humidity, seven days, read-out: control compared to the untreated check (radial growth)
[3] = tested on: Alternaria solani; assay: Alternaria solani (early blight of tomato/potato) in vitro test, radial growth on potato dextrose agar; assay type: cell-based; conditions: 168 h, 300 ppm in potato dextrose agar, 25° C., 60% relative humidity, seven days, read-out: control compared to the untreated check (radial growth)
[4] = tested on: Rhizoctonia solani; assay: Rhizoctonia solani (rice sheath blight/potato black scurf) in vitro test, radial growth on potato dextrose agar; assay type: cell-based; conditions: 168 h, 300 ppm in potato dextrose agar, 25° C., 60% relative humidity, seven days, read-out: control compared to the untreated check (radial growth)
[5] = tested on: Phakopsora pachyrhizi; assay: Phakopsora pachyrhizi test in soybean, preventive, in vivo on plants; conditions: in Glycine max, read-out: Efficacy (% control), disease severity compared to the untreated check

CCN(C)C=Nc1cc(F)cc(N(C)c2ccc(F)c(F)c2)c1C [Compound 83, N′-(3-((3,4-difluorophenyl)(methyl)amino)-5-fluoro-2-methylphenyl)-N-ethyl-N-methylformimidamide]
≥ 70%: inhibition of growth at 300 ppm [1] | inhibition of growth at 300 ppm [2] | inhibition of growth at 300 ppm [3] | inhibition of growth at 300 ppm [4]

CCN(C)C=Nc1cc(C)cc(N(C)c2cc(Cl)ccc2C)c1Cl [Compound 110, N′-(2-chloro-3-((5-chloro-2-methylphenyl)(methyl)amino)-5-methylphenyl)-N-ethyl-N-methylformimidamide]
≥ 70%: inhibition of growth at 300 ppm [2] | inhibition of growth at 300 ppm [3]

CCN(C)C=Nc1cc(F)cc(N(C)c2cccc(F)c2)c1C [Compound 32, N-ethyl-N′-(5-fluoro-3-((3-fluorophenyl)(methyl)amino)-2-methylphenyl)-N-methylformimidamide]
≥ 70%: inhibition of growth at 300 ppm [1] | pest or weed control at 500 ppm [5] | inhibition of growth at 300 ppm [2] | inhibition of growth at 300 ppm [3]

CCN(C)C=Nc1cc(F)cc(Nc2cccc(C)c2F)c1C [Compound 122, N-ethyl-N′-(5-fluoro-3-((2-fluoro-3-methylphenyl)amino)-2-methylphenyl)-N-methylformimidamide]
≥ 70%: inhibition of growth at 300 ppm [1] | pest or weed control at 500 ppm [5] | inhibition of growth at 300 ppm [2]

CCN(C)C=Nc1cc(Cl)cc(N(C)c2cccc(C)c2)c1C [Compound 160, N′-(5-chloro-2-methyl-3-(methyl(m-tolyl)amino)phenyl)-N-ethyl-N-methylformimidamide]
≥ 70%: inhibition of growth at 300 ppm [1] | pest or weed control at 500 ppm [5] | inhibition of growth at 300 ppm [2] | inhibition of growth at 300 ppm [3]

CCN(C)C=Nc1cc(F)cc(Cc2cc(F)ccc2C)c1C [Compound 231, N-ethyl-N′-(5-fluoro-3-(5-fluoro-2-methylbenzyl)-2-methylphenyl)-N-methylformimidamide]
≥ 70%: inhibition of growth at 300 ppm [1] | pest or weed control at 500 ppm [5] | inhibition of growth at 300 ppm [2] | inhibition of growth at 300 ppm [3] | inhibition of growth at 300 ppm [4]

CCN(C)C=Nc1cc(F)cc(Nc2ccccc2)c1C [Compound 8, N-ethyl-N′-(5-fluoro-2-methyl-3-(phenylamino)phenyl)-N-methylformimidamide]
≥ 70%: inhibition of growth at 300 ppm [1] | inhibition of growth at 300 ppm [2] | inhibition of growth at 300 ppm [3]

CCN(C)C=Nc1cc(C)cc(Nc2ccc(Cl)cc2F)c1Cl [Compound 134, N′-(2-chloro-3-((4-chloro-2-fluorophenyl)amino)-5-methylphenyl)-N-ethyl-N-methylformimidamide]
≥ 70%: inhibition of growth at 300 ppm [1] | pest or weed control at 500 ppm [5] | inhibition of growth at 300 ppm [2] | inhibition of growth at 300 ppm [4]

CCN(C)C=Nc1cc(F)cc(Cc2cc(F)ccc2Cl)c1C [Compound 229, N′-(3-(2-chloro-5-fluorobenzyl)-5-fluoro-2-methylphenyl)-N-ethyl-N-methylformimidamide]
≥ 70%: inhibition of growth at 300 ppm [1] | pest or weed control at 500 ppm [5] | inhibition of growth at 300 ppm [2] | inhibition of growth at 300 ppm [3] | inhibition of growth at 300 ppm [4]

CCN(C)C=Nc1cc(F)cc(Cc2ccc(F)cc2Br)c1C [Compound 230, N′-(3-(2-bromo-4-fluorobenzyl)-5-fluoro-2-methylphenyl)-N-ethyl-N-methylformimidamide]
≥ 70%: inhibition of growth at 300 ppm [1] | pest or weed control at 500 ppm [5] | inhibition of growth at 300 ppm [2] | inhibition of growth at 300 ppm [3] | inhibition of growth at 300 ppm [4]

CCN(C)C=Nc1cc(C)cc(Cc2cc(F)ccc2C)c1Cl [Compound 57, N′-(2-chloro-3-(5-fluoro-2-methylbenzyl)-5-methylphenyl)-N-ethyl-N-methylformimidamide]
≥ 70%: inhibition of growth at 300 ppm [1] | pest or weed control at 500 ppm [5] | inhibition of growth at 300 ppm [2] | inhibition of growth at 300 ppm [3]

CCN(C)C=Nc1cc(F)cc(N(C)c2cc(F)cc(Cl)c2)c1C [Compound 106, N′-(3-((3-chloro-5-fluorophenyl)(methyl)amino)-5-fluoro-2-methylphenyl)-N-ethyl-N-methylformimidamide]
≥ 70%: inhibition of growth at 300 ppm [2] | inhibition of growth at 300 ppm [3]

CCN(C)C=Nc1cc(C#N)cc(Cc2ccc(Cl)cc2)c1C [Compound 311, N′-(3-(4-chlorobenzyl)-5-cyano-2-methylphenyl)-N-ethyl-N-methylformimidamide]
≥ 70%: inhibition of growth at 300 ppm [1] | inhibition of growth at 300 ppm [2] | inhibition of growth at 300 ppm [4]

CCc1cccc(N(C)c2cc(Cl)cc(N=CN(C)CC)c2C)n1 [Compound 253, N′-(5-chloro-3-((6-ethylpyridin-2-yl)(methyl)amino)-2-methylphenyl)-N-ethyl-N-methylformimidamide]
≥ 70%: inhibition of growth at 300 ppm [1] | pest or weed control at 500 ppm [5] | inhibition of growth at 300 ppm [3] | inhibition of growth at 300 ppm [4]

CCN(C)C=Nc1cc(Cl)cc(Cc2ccccc2OC(F)(F)F)c1C [Compound 247, N′-(5-chloro-2-methyl-3-(2-(trifluoromethoxy)benzyl)phenyl)-N-ethyl-N-methylformimidamide]
≥ 70%: inhibition of growth at 300 ppm [1] | inhibition of growth at 300 ppm [2] | inhibition of growth at 300 ppm [3] | inhibition of growth at 300 ppm [4]

CCN(C)C=Nc1cc(C#N)cc(Cc2ccc(F)cc2)c1C [Compound 310, N′-(5-cyano-3-(4-fluorobenzyl)-2-methylphenyl)-N-ethyl-N-methylformimidamide]
≥ 70%: inhibition of growth at 300 ppm [1] | inhibition of growth at 300 ppm [2] | inhibition of growth at 300 ppm [3]

CCN(C)C=Nc1cc(C)cc(N(C)c2cccc(C(C)C)c2)c1Cl [Compound 63, N′-(2-chloro-3-((3-isopropylphenyl)(methyl)amino)-5-methylphenyl)-N-ethyl-N-methylformimidamide]
≥ 70%: inhibition of growth at 300 ppm [2] | inhibition of growth at 300 ppm [3]

CCN(C)C=Nc1cc(C)cc(N(C)c2ccc(F)c(OC)c2)c1Cl [Compound 288, N′-(2-chloro-3-((4-fluoro-3-methoxyphenyl)(methyl)amino)-5-methylphenyl)-N-ethyl-N-methylformimidamide]
≥ 70%: inhibition of growth at 300 ppm [1] | inhibition of growth at 300 ppm [2] | inhibition of growth at 300 ppm [3]

CCN(C)C=Nc1cc(Cl)cc(N(C)c2cccc(F)c2)c1C [Compound 179, N′-(5-chloro-3-((3-fluorophenyl)(methyl)amino)-2-methylphenyl)-N-ethyl-N-methylformimidamide]
≥ 70%: inhibition of growth at 300 ppm [1] | pest or weed control at 500 ppm [5] | inhibition of growth at 300 ppm [2] | inhibition of growth at 300 ppm [3]

CCN(C)C=Nc1cc(F)cc(Cc2ccc(OC(F)(F)F)cc2)c1C [Compound 176, N-ethyl-N′-(5-fluoro-2-methyl-3-(4-(trifluoromethoxy)benzyl)phenyl)-N-methylformimidamide]
≥ 70%: inhibition of growth at 300 ppm [1] | inhibition of growth at 300 ppm [2] | inhibition of growth at 300 ppm [3] | inhibition of growth at 300 ppm [4]

CCN(C)C=Nc1cc(F)cc(N(C)c2cccc(Cl)c2)c1C [Compound 33, N′-(3-((3-chlorophenyl)(methyl)amino)-5-fluoro-2-methylphenyl)-N-ethyl-N-methylformimidamide]
≥ 70%: inhibition of growth at 300 ppm [1] | pest or weed control at 500 ppm [5] | inhibition of growth at 300 ppm [2] | inhibition of growth at 300 ppm [3]

CCN(C)C=Nc1cc(C)cc(Cc2cccc(OC)c2)c1Cl [Compound 28, N′-(2-chloro-3-(3-methoxybenzyl)-5-methylphenyl)-N-ethyl-N-methylformimidamide]
≥ 70%: inhibition of growth at 300 ppm [1] | pest or weed control at 500 ppm [5] | inhibition of growth at 300 ppm [3] | inhibition of growth at 300 ppm [4]

CCN(C)C=Nc1cc(F)cc(Cc2cccc(C#N)c2)c1C [Compound 174, N′-(3-(3-cyanobenzyl)-5-fluoro-2-methylphenyl)-N-ethyl-N-methylformimidamide]
≥ 70%: inhibition of growth at 300 ppm [1] | inhibition of growth at 300 ppm [2] | inhibition of growth at 300 ppm [3] | inhibition of growth at 300 ppm [4]

CCN(C)C=Nc1cc(Cl)cc(Cc2cccc(C(F)(F)F)c2)c1C [Compound 127, N′-(5-chloro-2-methyl-3-(3-(trifluoromethyl)benzyl)phenyl)-N-ethyl-N-methylformimidamide]
≥ 70%: inhibition of growth at 300 ppm [1] | pest or weed control at 500 ppm [5] | inhibition of growth at 300 ppm [3] | inhibition of growth at 300 ppm [4]

CCN(C)C=Nc1cc(C)cc(N(C)c2ccc(F)c(F)c2)c1Cl [Compound 81, N′-(2-chloro-3-((3,4-difluorophenyl)(methyl)amino)-5-methylphenyl)-N-ethyl-N-methylformimidamide]
≥ 70%: pest or weed control at 500 ppm [5] | inhibition of growth at 300 ppm [2] | inhibition of growth at 300 ppm [3]

CCN(C)C=Nc1cc(F)cc(Cc2cccc(OC(F)(F)F)c2)c1C [Compound 173, N-ethyl-N′-(5-fluoro-2-methyl-3-(3-(trifluoromethoxy)benzyl)phenyl)-N-methylformimidamide]
≥ 70%: inhibition of growth at 300 ppm [1] | inhibition of growth at 300 ppm [2] | inhibition of growth at 300 ppm [3] | inhibition of growth at 300 ppm [4]

CCN(C)C=Nc1cc(F)cc(Cc2ccccc2OC(F)(F)F)c1C [Compound 170, N-ethyl-N′-(5-fluoro-2-methyl-3-(2-(trifluoromethoxy)benzyl)phenyl)-N-methylformimidamide]
≥ 70%: inhibition of growth at 300 ppm [1] | inhibition of growth at 300 ppm [2] | inhibition of growth at 300 ppm [3] | inhibition of growth at 300 ppm [4]

CCN(C)C=Nc1cc(F)cc(Cc2ccc(Br)cc2)c1C [Compound 175, N′-(3-(4-bromobenzyl)-5-fluoro-2-methylphenyl)-N-ethyl-N-methylformimidamide]
≥ 70%: inhibition of growth at 300 ppm [1] | inhibition of growth at 300 ppm [2] | inhibition of growth at 300 ppm [3] | inhibition of growth at 300 ppm [4]
